Experimental data as given in US20260265246A1 (ICAHN SCHOOL OF MEDICINE AT MOUNT SINAI, priority 2021, published 2026).
Like-named read-outs stand apart in the source and are kept apart here.

Experiments:
5HT2A receptor [1] = target: T1, 5HT2A receptor (Homo sapiens, UniProt P28223); test: biochemical; assay type: binding; design: expressed in transfected cells; crude membranes
5HT2A receptor [2] = target: T1, 5HT2A receptor; test: cell-based; design: expressed in transfected cells; host or cells: HEK293T cells, transient co-transfection; details: for Emax: HEK-293T
[3] = 5HT2A Ki (nM), secondary binding assay, Cheng-Prusoff
[4] = 5HTA Gq EC50 (nM), BRET2 Gαq dissociation, HEK293T
[5] = BRET2 Gαq dissociation, HEK293T, normalized to 5-HT, read-out: 5HTA Gq Emax (%)
[6] = read-out: 5HTA Gq Emax (%), BRET2 Gαq dissociation, HEK293T, normalized to 5-HT
[7] = BRET2 Gαq dissociation, HEK293T, read-out: 5HTA Gq EC50
[8] = 5HT2A Ki (nM), secondary radioligand binding, Ki from IC50 by Cheng-Prusoff
[9] = 5HT2A Gq EC50 (nM), BRET2 Gαq dissociation, HEK293T cells
[10] = BRET2 Gαq dissociation, HEK293T cells, normalized to 5-HT, read-out: 5HT2A Gq Emax (%)

T1 sequence (P28223 whole entry): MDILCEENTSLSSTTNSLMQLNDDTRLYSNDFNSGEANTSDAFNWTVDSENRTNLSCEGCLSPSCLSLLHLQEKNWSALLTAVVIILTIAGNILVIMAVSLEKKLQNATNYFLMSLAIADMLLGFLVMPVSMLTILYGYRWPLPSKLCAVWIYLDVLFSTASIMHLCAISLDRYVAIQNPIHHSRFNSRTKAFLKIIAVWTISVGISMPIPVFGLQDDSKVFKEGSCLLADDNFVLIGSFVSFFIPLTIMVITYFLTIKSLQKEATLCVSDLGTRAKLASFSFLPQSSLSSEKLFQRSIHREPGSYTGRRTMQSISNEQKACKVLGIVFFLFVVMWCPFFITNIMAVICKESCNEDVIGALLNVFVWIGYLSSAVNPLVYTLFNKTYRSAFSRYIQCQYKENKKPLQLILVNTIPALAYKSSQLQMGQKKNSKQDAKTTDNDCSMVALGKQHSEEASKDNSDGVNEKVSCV

Row | Compound | Ki (5HT2A receptor [1]; [3]) | EC50 (5HT2A receptor [2]; [4]) | Emax (5HT2A receptor [2]; [5]) | further results
1 | CN1CC(c2c[nH]c3c(F)cccc23)C1 [Example 260, 7-fluoro-3-(1-methylazetidin-3-yl)-1H-indole] | 357 nM | 422 nM | 63.1% | 
2 | Fc1cccc2c(C3CNC3)c[nH]c12 [Example 259, 3-(azetidin-3-yl)-7-fluoro-1H-indole] | 168 nM | 944 nM |  | Emax (5HT2A receptor [2]; [6]): 81.6%
3 | CC(C)c1cccc2c(C3CNC3)c[nH]c12 [Example 262, 3-(azetidin-3-yl)-7-isopropyl-1H-indole] | 1910 nM | 316 nM | 114% | 
4 | C1=C(c2c[nH]c3ccncc23)CNCC1 [Example 141, 3-(1,2,5,6-tetrahydropyridin-3-yl)-1H-pyrrolo[3,2-c]pyridine] | 739 nM | 631 nM | 91.3% | 
5 | Fc1cc(Cl)c2[nH]nc(C34CNCCC3C4(F)F)c2c1 (stereo not shown) [Example 191, 7-chloro-3-(7,7-difluoro-3-azabicyclo[4.1.0]heptan-1-yl)-5-fluoro-1H-indazole] | 3040 nM | 1620 nM | 83% | 
6 | Clc1cccc2c(C34CNCC3C4)c[nH]c12 (single isomer, unassigned) [Example 278, 3-(3-azabicyclo[3.1.0]hexan-1-yl)-7-chloro-1H-indole] |  |  |  | Ki (5HT2A receptor [1]; secondary binding assay, Cheng-Prusoff, read-out: 5HT2A Ki): 33 nM; 5HTA Gq Emax (%) (5HT2A receptor [2]; BRET2 Gαq dissociation, HEK293T, normalized to 5-HT): 58.2%; EC50 (5HT2A receptor [2]; [7]): 9.23 nM
7 | CCC(C)N1CCC=C(c2n[nH]c3c(Cl)cccc23)C1 (stereo not shown) [Example 167, 3-(1-(sec-butyl)-1,2,5,6-tetrahydropyridin-3-yl)-7-chloro-1H-indazole] | 525 nM | 173 nM | 25.7% | 
8 | CCCc1cccc2c(C3=CCCN(C)C3)c[nH]c12 [Example 244, 3-(1-methyl-1,2,5,6-tetrahydropyridin-3-yl)-7-propyl-1H-indole] | 1550 nM | 397 nM |  | Emax (5HT2A receptor [2]; [6]): 77.2%
9 | Fc1cc(Cl)c2[nH]nc(C34CNCC3C4(F)F)c2c1 (stereo not shown) [Example 203, 7-chloro-3-(6,6-difluoro-3-azabicyclo[3.1.0]hexan-1-yl)-5-fluoro-1H-indazole] | 1080 nM | 700 nM | 39.5% | 
10 | COc1cccc2c(C3=CCCN(Cc4ccccc4)C3)c[nH]c12 [Example 71, 3-(1-benzyl-1,2,5,6-tetrahydropyridin-3-yl)-7-methoxy-1H-indole] |  |  |  | Ki (5HT2A receptor [1]; [8]): 448 nM; EC50 (5HT2A receptor [2]; [9]): 530 nM; Emax (5HT2A receptor [2]; [10]): 65.2%
11 | Cc1ccc2[nH]cc(C3=CCCNC3)c2n1 [Example 139, 5-methyl-3-(1,2,5,6-tetrahydropyridin-3-yl)-1H-pyrrolo[3,2-b]pyridine] | 4180 nM | 785 nM | 112% | 
12 | CCc1ccc2[nH]cc(C3=CCCNC3)c2c1 [Example 25, 5-ethyl-3-(1,2,5,6-tetrahydropyridin-3-yl)-1H-indole] |  |  |  | Ki (5HT2A receptor [1]; [8]): 941 nM; EC50 (5HT2A receptor [2]; [9]): 592 nM; Emax (5HT2A receptor [2]; [10]): 73.3%
13 | CCCN1CCC=C(c2n[nH]c3c(Cl)cccc23)C1 [Example 123, 7-chloro-3-(1-propyl-1,2,5,6-tetrahydropyridin-3-yl)-1H-indazole] |  |  |  | Ki (5HT2A receptor [1]; [8]): 140 nM; EC50 (5HT2A receptor [2]; [9]): 142 nM; Emax (5HT2A receptor [2]; [10]): 66.9%
14 | Clc1cccc2c(C34CCNCC3C4)n[nH]c12 (stereo not shown) [Example 228, 3-(3-azabicyclo[4.1.0]heptan-6-yl)-7-chloro-1H-indazole] | 5240 nM | 1070 nM | 76.4% | 
15 | Clc1cccc2c(C34CNCC3C4)n[nH]c12 (stereo not shown) [Example 180, 3-(3-azabicyclo[3.1.0]hexan-1-yl)-7-chloro-1H-indazole] | 227 nM | 174 nM |  | Emax (5HT2A receptor [2]; [6]): 109%
16 | CN1CCCC=C(c2n[nH]c3c(Cl)cccc23)C1 [Example 211, 7-chloro-3-(1-methyl-2,5,6,7-tetrahydro-1H-azepin-3-yl)-1H-indazole] | 1180 nM | 732 nM | 59.9% | 
17 | CCc1cccc2c(C3=CCCNC3)c(Cl)[nH]c12 [Example 66, 2-chloro-7-ethyl-3-(1,2,5,6-tetrahydropyridin-3-yl)-1H-indole] |  |  |  | Ki (5HT2A receptor [1]; [8]): 115 nM; EC50 (5HT2A receptor [2]; [9]): 213 nM; Emax (5HT2A receptor [2]; [10]): 79%
18 | CCCN1CCC2CC2(c2n[nH]c3c(Cl)cccc23)C1 (stereo not shown) [Example 182, 7-chloro-3-(3-propyl-3-azabicyclo[4.1.0]heptan-1-yl)-1H-indazole] | 2470 nM | 786 nM | 78.9% | 
19 | CC(F)(F)CN1CCC=C(c2n[nH]c3c(Cl)cccc23)C1 [Example 163, 7-chloro-3-(1-(2,2-difluoropropyl)-1,2,5,6-tetrahydropyridin-3-yl)-1H-indazole] | > 10000 nM | 604 nM | 82.4% | 

Row | Compound | Ki (5HT2A receptor [1]; [3]) | EC50 (5HT2A receptor [2]; [4]) | Emax (5HT2A receptor [2]; [5]) | further results
20 | Cc1cccc2c(C3CNC3)c[nH]c12 [Example 258, 3-(azetidin-3-yl)-7-methyl-1H-indole] | 674 nM | 444 nM |  | Emax (5HT2A receptor [2]; [6]): 82.1%
21 | FC1(F)C2CCNCC21c1n[nH]c2c(Cl)cccc12 (stereo not shown) [Example 188, 7-chloro-3-(7,7-difluoro-3-azabicyclo[4.1.0]heptan-1-yl)-1H-indazole] | 2100 nM | 1460 nM |  | Emax (5HT2A receptor [2]; [6]): 83.7%
22 | Clc1cccc2c(C34CNCCC3C4)n[nH]c12 (stereo not shown) [Example 181, 3-(3-azabicyclo[4.1.0]heptan-1-yl)-7-chloro-1H-indazole] | 842 nM | 120 nM |  | Emax (5HT2A receptor [2]; [6]): 61.3%
23 | Fc1cc(Cl)c2[nH]nc(C34CNCCC3C4)c2c1 (stereo not shown) [Example 196, 3-(3-azabicyclo[4.1.0]heptan-1-yl)-7-chloro-5-fluoro-1H-indazole] | 910 nM | 220 nM | 67% | 
24 | Cc1cc(Cl)cc2c(C3CNC3)c[nH]c12 [Example 263, 3-(azetidin-3-yl)-5-chloro-7-methyl-1H-indole] | 244 nM | 127 nM | 63.7% | 
25 | CN1CCC=C(c2c[nH]c3ccncc23)C1 [Example 136, 3-(1-methyl-1,2,5,6-tetrahydropyridin-3-yl)-1H-pyrrolo[3,2-c]pyridine] | 1810 nM | 529 nM | 92.5% | 
26 | Clc1cccc2c(C3=CCNCC3)n[nH]c12 [Example 241, 7-chloro-3-(1,2,3,6-tetrahydropyridin-4-yl)-1H-indazole] | 376 nM |  | 63.4% | EC50 (5HT2A receptor [2]; [7]): 65 nM
27 | Fc1cc(Cl)c2[nH]cc(C3CNCCO3)c2c1 (stereo not shown) [Example 249, 2-(7-chloro-5-fluoro-1H-indol-3-yl)morpholine] | 1020 nM | 118 nM | 72.2% | 
28 | Cc1cccc2c(C3=CCN(C)CCC3)n[nH]c12 [Example 205, 7-methyl-3-(1-methyl-2,5,6,7-tetrahydro-1H-azepin-4-yl)-1H-indazole] | 217 nM |  |  | 
29 | CN1CCC=C(c2c[nH]c3c(C(=O)O)cccc23)C1 [Example 57, 3-(1-methyl-1,2,5,6-tetrahydropyridin-3-yl)-1H-indole-7-carboxylic acid] |  |  |  | Ki (5HT2A receptor [1]; [8]): > 10000 nM
30 | Clc1cccc2c(C3CN4CCC3CC4)c[nH]c12 (stereo not shown) [Example 251, 3-(7-chloro-1H-indol-3-yl)quinuclidine] | 1100 nM |  |  | 
31 | CN(C)C1CCC=C(c2n[nH]c3c(Cl)cccc23)C1 (stereo not shown) [Example 170, 3-(7-chloro-1H-indazol-3-yl)-N,N-dimethylcyclohex-3-en-1-amine] | > 10000 nM |  |  | 
32 | CN1CCC=C(c2c[nH]c3c(CO)cccc23)C1 [Example 58, (3-(1-methyl-1,2,5,6-tetrahydropyridin-3-yl)-1H-indol-7-yl)methanol] |  |  |  | Ki (5HT2A receptor [1]; [8]): > 10000 nM
33 | COc1cccc2c(C3=CCCN(C)C3)n[nH]c12 [Example 109, 7-methoxy-3-(1-methyl-1,2,5,6-tetrahydropyridin-3-yl)-1H-indazole] |  |  |  | Ki (5HT2A receptor [1]; [8]): > 10000 nM
34 | CN1CCC=C(c2n[nH]c3cc(C#N)ccc23)C1 [Example 96, 3-(1-methyl-1,2,5,6-tetrahydropyridin-3-yl)-1H-indazole-6-carbonitrile] |  |  |  | Ki (5HT2A receptor [1]; [8]): 5470 nM
35 | c1cc(-c2cncnc2)c2[nH]nc(-c3cncnc3)c2c1 [Example 215, 3,7-di(pyrimidin-5-yl)-1H-indazole] | 3280 nM |  |  | 
36 | Cc1cccc2c(C34CNCC3C4(F)F)n[nH]c12 (stereo not shown) [Example 200] | > 10000 nM |  |  | 
37 | COc1ccc2c(C3=CCCNC3)c[nH]c2c1 [Example 35, 6-methoxy-3-(1,2,5,6-tetrahydropyridin-3-yl)-1H-indole] |  |  |  | Ki (5HT2A receptor [1]; [8]): > 10000 nM
